According to patent US5424456A, “N-arylalkylderivatives of 2-aminomethyl-2,3-dihydro-1,4-benzodioxine and the process of preparation thereof” (Vyzkumny Ustav Pro Farmacii A Biochemii s.p., priority 1991, dated 1995):
Where two headings read alike, the source gives them in different places.

Legend:
[1] = test system: rat peripheral venous thrombosis; assay: Antithrombotic activity, rat peripheral venous thrombosis in closed abdominal part of vena cava; assay type: in vivo; conditions: rats, read-out: statistically significant effective dose (mass of thrombi)
Protocol: The antithrombotic activity of the test compounds was established using the model of rat peripheral venous thrombosis in a closed abdominal part of vena cava. The thrombus was induced by intravenous administration of hypotonic solution of sodium chloride. The thrombus was freed 10 minutes after induction and weighted. The mass of thrombi in control animals was compared to the mass of thrombi of animals administered by the test compound. The statistically significant effective dose for compound VUFB 17951 was 0.5 mg/kg intravenously and 5 mg/kg orally and for the compound VUFB 17959 0.25 mg/kg and 1.0 mg/kg, respectively. The corresponding dose of a standard (Cilostazol, generic name, Merck index, 11th Edition, 2277) was 25 mg/kg orally.

blood pressure [2] = assay: Hypotensive activity, pentobarbital anaesthesized rabbits; assay type: in vivo, rabbit
Source text: a) The blood pressure of pentobarbital anaesthesized rabbits was registered invasively in arteria femoralis. The average decrease in systolic (SBP) and diastolic (DBP) blood pressure expressed in per cents of the starting blood pressure level after intravenous and oral administration is shown in Tables 3 and 4.

α-adrenergic = α-adrenergic blocking activity, postdecapitation muscular contractions in rats; assay type: in vivo, rat; conditions: i.v., 4.2 g/kg (so in the source), 30 minutes prior to decapitation
Protocol: b) The α-adrenergic blocking activity of compounds VUFB 17951 and VUFB 17959 was also shown in the test of influencing the postdecapitation muscular contractions in rats. The test compounds were administered intravenously in the dose of 4.6 mg/kg for VUFB 17951 and […] for VUFB 17959.

blood pressure [3] = assay: Hypotensive activity, conscious monkeys; assay type: in vivo, Macaca mulatta; conditions: i.v., 0.25 mg/kg
Protocol: c) The blood pressure of conscious monkeys (Macaca mulatta) was measured non-invasively on the arm. The average decrease in systolic (SBP) and diastolic (DBP) blood pressure after intravenous and oral administration was expressed in per cents of the starting blood pressure.

[4] = p.o., 10.0 mg/kg, value 1 of 5 (heads 30/60/120/180 min)
[5] = p.o., 10.0 mg/kg, value 2 of 5 (heads 30/60/120/180 min)
[6] = p.o., 10.0 mg/kg, value 3 of 5 (heads 30/60/120/180 min)
[7] = p.o., 10.0 mg/kg, value 4 of 5 (heads 30/60/120/180 min)
[8] = p.o., 10.0 mg/kg, value 5 of 5 (heads 30/60/120/180 min)
[9] = p.o., 50.0 mg/kg, value 1 of 5 (heads 30/60/120/180 min)
[10] = p.o., 50.0 mg/kg, value 2 of 5 (heads 30/60/120/180 min)
[11] = p.o., 50.0 mg/kg, value 3 of 5 (heads 30/60/120/180 min)
[12] = p.o., 50.0 mg/kg, value 4 of 5 (heads 30/60/120/180 min)
[13] = p.o., 50.0 mg/kg, value 5 of 5 (heads 30/60/120/180 min)

`Cc1ccccc1C(C#N)(CCCNCC1COc2ccccc2O1)C(C)C` (racemic) [VUFB 17959, 5-(2,3-dihydro-1,4-benzodioxin-2-ylmethylamino)-2-isopropyl-2-(2-methylphenyl) valeronitrile] was tested, and the minimal effective dose ([1]; iv, intravenously) was 0.25 mg/kg, the minimal effective dose ([1]; po, orally) was 1 mg/kg and the “decrease in diastolic blood pressure (DBP)” value (“decrease … (DBP)” below) (blood pressure [2]; i.v., 1.0 mg/kg, 1 min) was -51 per cents. The “decrease in systolic blood pressure (SBP)” value (from here on “decrease … (SBP)”) (blood pressure [2]; i.v., 1.0 mg/kg, 1 min) was -47 per cents, the “decrease … (DBP)” value (blood pressure [2]; i.v., 1.0 mg/kg, 5 min) was -22 per cents and the “decrease … (SBP)” value (blood pressure [2]; i.v., 1.0 mg/kg, 5 min) was -23 per cents. For the same compound, the “decrease … (DBP)” value (blood pressure [2]; i.v., 1.0 mg/kg, 30 min) was -21 per cents, the “decrease … (SBP)” value (blood pressure [2]; i.v., 1.0 mg/kg, 30 min) was -22 per cents and the “decrease … (DBP)” value (blood pressure [2]; i.v., 1.0 mg/kg, 60 min) was -25 per cents. The “decrease … (SBP)” value (blood pressure [2]; i.v., 1.0 mg/kg, 60 min) was -14 per cents, the “decrease … (DBP)” value (blood pressure [2]; i.v., 1.0 mg/kg, 180 min) was -18 per cents and the “decrease … (SBP)” value (blood pressure [2]; i.v., 1.0 mg/kg, 180 min) was -8 per cents. The “decrease … (DBP)” value (blood pressure [2]; i.v., 5.0 mg/kg, 1 min) was -69 per cents, the “decrease … (SBP)” value (blood pressure [2]; i.v., 5.0 mg/kg, 1 min) was -60 per cents and the “decrease … (DBP)” value (blood pressure [2]; i.v., 5.0 mg/kg, 5 min) was -39 per cents. The “decrease … (SBP)” value (blood pressure [2]; i.v., 5.0 mg/kg, 5 min) was -35 per cents, the “decrease … (DBP)” value (blood pressure [2]; i.v., 5.0 mg/kg, 30 min) was -31 per cents and the “decrease … (SBP)” value (blood pressure [2]; i.v., 5.0 mg/kg, 30 min) was -26 per cents. For the same compound, the “decrease … (DBP)” value (blood pressure [2]; i.v., 5.0 mg/kg, 60 min) was -29 per cents, the “decrease … (SBP)” value (blood pressure [2]; i.v., 5.0 mg/kg, 60 min) was -27 per cents and the “decrease … (DBP)” value (blood pressure [2]; i.v., 5.0 mg/kg, 180 min) was -33 per cents. The “decrease … (SBP)” value (blood pressure [2]; i.v., 5.0 mg/kg, 180 min) was -25 per cents, the “decrease … (DBP)” value (blood pressure [2]; [4]) was -2 per cents and the “decrease … (SBP)” value (blood pressure [2]; [4]) was -2 per cents. The “decrease … (DBP)” value (blood pressure [2]; [5]) was 0 per cents, the “decrease … (SBP)” value (blood pressure [2]; [5]) was -3 per cents and the “decrease … (DBP)” value (blood pressure [2]; [6]) was -3 per cents. For the same compound, the “decrease … (SBP)” value (blood pressure [2]; [6]) was -4 per cents, the “decrease … (DBP)” value (blood pressure [2]; [7]) was -8 per cents and the “decrease … (SBP)” value (blood pressure [2]; [7]) was -1 per cents. The “decrease … (DBP)” value (blood pressure [2]; [8]) was -10 per cents, the “decrease … (SBP)” value (blood pressure [2]; [8]) was “+3 per cents” and the “decrease … (DBP)” value (blood pressure [2]; [9]) was -6 per cents. The “decrease … (SBP)” value (blood pressure [2]; [9]) was -9 per cents, the “decrease … (DBP)” value (blood pressure [2]; [10]) was -12 per cents and the “decrease … (SBP)” value (blood pressure [2]; [10]) was -18 per cents. The “decrease … (DBP)” value (blood pressure [2]; [11]) was -18 per cents, the “decrease … (SBP)” value (blood pressure [2]; [11]) was -26 per cents and the “decrease … (DBP)” value (blood pressure [2]; [12]) was -18 per cents. For the same compound, the “decrease … (SBP)” value (blood pressure [2]; [12]) was -29 per cents, the “decrease … (DBP)” value (blood pressure [2]; [13]) was -18 per cents and the “decrease … (SBP)” value (blood pressure [2]; [13]) was -31 per cents. For the same compound, the “decrease in number of postdecapitation contractions” value (α-adrenergic) was “highly significant decrease in number of postdecapitation contractions”, the “decrease … (DBP)” value (blood pressure [3]; 1 min) was -4 per cents and the “decrease … (SBP)” value (blood pressure [3]; 1 min) was -1 per cents. For the same compound, the “decrease … (DBP)” value (blood pressure [3]; 5 min) was -16 per cents, the “decrease … (SBP)” value (blood pressure [3]; 5 min) was -12 per cents and the “decrease … (DBP)” value (blood pressure [3]; 30 min) was -24 per cents. The “decrease … (SBP)” value (blood pressure [3]; 30 min) was -22 per cents, the “decrease … (DBP)” value (blood pressure [3]; 60 min) was -20 per cents and the “decrease … (SBP)” value (blood pressure [3]; 60 min) was -17 per cents. For the same compound, the “decrease … (DBP)” value (blood pressure [3]; 180 min) was -7 per cents.
